These are literature values, as cited in patent US20170304358A1, “PRIMARY AND SECONDARY PREVENTION OF DEMENTIAS AND SUICIDE WITH TRACE DOSE LITHIUM” (priority 2014, published 2017).

For data set [1] the following is noted: standard doses of lithium.
Data set [2] deals with cognition in persons with MCI. Conditions: micro-doses (<0.28 mg/d of lithium carbonate).

In the case of `[Li]` [lithium], the adverse side effects result in data set [1] is on record as “renal toxicity”.

Take `O=C([O-])[O-].[Li+].[Li+]` [Lithium carbonate, lithium carbonate]: in data set [2], the “benefit for cognition in MCI” value was “some benefit for cognition”.
